Where two headings read alike, the source gives them in different places.
Legend:
[1] = Turbidity, derived count rate of scattered light; type: physicochemical; details: for Count Rate: derived count rate of scattered light (turbidity); for Log10 Count Rate: turbidity, derived count rate of scattered light, data of Figure 2D
[2] = Zeta-potential measurement; type: physicochemical
In short: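 PBS pH 7.4, 1 mg/mL peptide (DMSO stock), 1 d RT aggregation; diluted in 1 mM KCl pre-read; mobility → zeta (Smoluchowski); n = 3, 2 expts averaged.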

[3] = system: HIV-1 infection of TZM-bl cells; experiment: HIV-1 infectivity enhancement assay, β-galactosidase luminescence; type: cell-based; details: for Rel-EFC / Log10 Infection Rel EFC: 1.3 µM peptide; for Rel-EFC: infection relative to EF-C (QCKIKQIINMWQ = 1); for Log10 Infection Rel EFC: log10 of infection relative to EF-C; for Log Infectivity: Log10 infection relative to EF-C, TZM-bl cells, asymmetric std dev errors; for Log10 Infection Rel EF-C: HIV-1 infection of TZM-bl cells; for Log10 Inf. rel. to EF-C: log10 of HIV-1 infection of TZM-bl cells relative to EF-C (EF-C = 0); for Abs. Inf.: absolute infection signal, HIV-1 on TZM-bl cells, β-galactosidase luminescence
[4] = Turbidity, derived count rate of scattered light; type: physicochemical; details: for Count Rate / kcps: derived count rate of scattered light at 633 nm, 173°, from zeta-potential measurement, 0.1 mg/mL in 1 mM KCl after 1 d at 1 mg/mL in PBS, turbidity / microscopic aggregation, mean of triplicate
In short: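 One-day room-temperature aggregation at 1 mg/mL in PBS (pH 7.4) preceded measurement; samples then went into 1 mM KCl. Triplicates per sample, two independent experiments averaged.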

[5] = zeta potential of peptide assemblies
[6] = zeta-potential of peptide, source data of Figure 2C
[7] = zeta-potential of the peptide assemblies, mean, Figure 3A source data
[8] = Fig. S7 panel A (plotted against β-sheet content)
[9] = Log10 of infection rate relative to EF-C, Figure 3A source data
[10] = infection rate relative to EF-C, log10, data of Figure 2D
[11] = infection rate relative to EF-C, log10, source data of Figure 2C
[12] = Log10 of derived count rate of scattered light (turbidity)
[13] = turbidity, Log10 of derived count rate of scattered light, Figure 3A source data
[14] = turbidity, log10 of derived count rate of scattered light
[15] = Fig. S7 panel B (plotted against CR), rounded to two decimals

Substance	Count Rate [1]	Log10 Count Rate [1]	Zeta-Potential / mV [2, 6] [mV]	Zeta-Potential / mV [2, 7] [mV]	Rel-EFC [3]	Log10 Infection Rel EFC [3]	Log Infectivity [3, 8]	Log10 Infection Rel EF-C [3, 9]	Log10 Infection Rel EF-C [3, 10]	Log10 Infection Rel EF-C [3, 11]	Log10 Inf. rel. to EF-C [3]	Log10 Count Rate [4, 12]	Count Rate / kcps [4] [kcps]	Log10 Count Rate [4, 13]	Log10 Count Rate [4, 14]	Zeta-Pot. [2]	Abs. Inf. [3]	Log Infectivity [3, 15]	further results
EIEIEIEI	538.4	2.731	-7.535	-8.92	0,02	-1,75	-1.748	-1.75	-1.748	-1.748	-1.748	2.731	538	2.731	2.731				Zeta-Pot. [2, 5]: -8.92
FDPFDPFDP	258	2.412	-6.68	-10.9	0,02	-1,63	-1.6317	-1.63	-1.6317	-1.6317	-1.6317	2.412	258	2.412	2.412	-10.9	346.7		
FKFDKFKFDK	45.13	1.6545	-8.027	-12.7	0,05	-1,33	-1.334	-1.33	-1.334	-1.334	-1.334	1.6545	45	1.6545	1.6545	-12.7	513.3		
HGDKCHGDKC	12.43	1.095	-8.035	-11.63	0,01	-1,99	-1.991	-1.99	-1.991	-1.991	-1.991	1.095	12	1.095	1.095	-11.63	263.3	-1.99	
HGEHGE	240.6	2.381	-8.73	-12.6	0,01	-2,19	-2.193	-2.19	-2.193	-2.193	-2.193	2.381	241	2.381	2.381	-12.6	140		
HGEHGEHGE	340.4	2.532	-14.63	-24.2	0,02	-1,72	-1.72	-1.72	-1.72	-1.72	-1.72	2.532	340	2.532	2.532	-24.2	360	-1.72	
HHHHEIEIEIEI	103.3	2.014	-6.272	-6.91	0,03	-1,53	-1.534	-1.53	-1.534	-1.534		2.014	103	2.014					Zeta-Pot. [2, 5]: -6.91; Log10 Count Rate ([4]; log10 of derived count rate of scattered light (turbidity)): 2.014
HIHIQIC	260.6	2.416	-5.093	-3.69	0,27	-0,57	-0.5672	-0.57	-0.5672	-0.5672	-0.5672	2.416	261	2.416	2.416	-3.687	4621	-0.57	Log10 of Rel to EFC (Feb2021) ([3]; Log10 of infection relative to EF-C, all peptides of FigS16): -0.57; Log10 Count Rate ([4]; logarithm of count rate in kcps): 2.416
HLHLPLL	200	2.301	-5.247	-9.05	0,01	-2	-1.9991	-2	-1.9991	-1.9991	-1.9991	2.301	200	2.301	2.301	-9.053	133.3	-2	
HRRHFRHKITKKK	9.5	0.9777	-4.964	-9.22	0,01	-1,87	-1.868	-1.87	-1.868	-1.868	-1.868	0.9777	10	0.9777	0.9777	-9.223	150	-1.87	
